According to US4868207A, “Bis (methylenedioxy) biphenyl compounds useful for the treatment of liver diseases” (priority 1988, dated 1989):
“Also recorded” adds a separate entry of the source.

Columns and labels:
Format in all cases: in vivo
[1] = tested on: male kunming strain mice; assay: Acute toxicity; conditions: 3 g/20 ml/kg and 6 g/20 ml/kg, oral
Experimental: Ten male kunming strain mice weighing 18-20 g were used, and starved overnight. Compound 1 was suspened in 0.2% CMC-Na, and 5 mice were given orally compound 1 in a dose of 3 g/20 ml/kg. The other 5 mice were given 6 g/20 ml/kg.

[2] = tested on: thioacetamide-intoxicated mice; assay: Effect on SGPT, SGOT and liver triglyceride levels in thioacetamide-intoxicated mice; conditions: for Liver triglyceride / SGOT / SGPT: oral; for Liver triglyceride: control 104 ± 35; for SGOT / SGPT: ± SD; for SGOT: control 1174 ± 435, Compound 1 P < 0.001; for SGPT: control 2365 ± 1045, Compound 1 P < 0.05
Excerpt: (§1) Throughout the following experiments, male mice weighing 18-22 g were used, and unless otherwise indicated, the compound of the present invention [6-methoxycarbonyl-6'-hydroxymethyl-2,3,2',3'-bis(methylenedioxy)-4,4'-dimethoxybiphenyl (hereinafter referred to as "Compound 1")]]and DDB of a comparative drug are each suspended in 2% of Tween-80 before administered orally.
(§2) Each group consisted of nine mice. The treated groups of mice were given three doses of Compound 1 twice at an interval of 8 hours on the first day, while one group was given corresponding volume of 2% of Tween-80 as control. At 4 p.m. of the second day, all mice were given i.p. 10 ml/kg of 0.1% of carbon tetrachloride in peanut oil. After a 16 hour fasting, all mice were sacrificed by decapitation. Serum transaminase (SGPT, SGOT) levels were determined.
(D) Effect on SGPT, SGOT and liver triglyceride levels in thioacetamide-intoxicated mice (9 mice per group)
Each group consisted of nine mice. The procedure of this experiment was just the same as mentioned in carbon tetrachloride-hepatotoxicity test. Only 50 mg/kg of thioacetamide was instread of carbon tetrachloride.

[3] = tested on: acetaminophen-intoxicated mice; assay: Effect on SGPT, SGOT and liver triglyceride levels in acetaminophen-intoxicated mice; conditions: for Liver triglyceride / SGPT / SGOT: oral; for Liver triglyceride: control 57.4 ± 18.3; for SGPT / SGOT: ± SD; for SGPT: control 1504 ± 330; for SGOT: control 1695 ± 390
Excerpt: as §1
(B) Effect on SGPT, SGOT and liver triglyceride levels in acetaminophen-intoxicated mice
Thirty six mice were divided equally into 4 groups. On the first day, one group was given 2% of Tween-80 as control, while other groups were each given two doses of Compound 1 at an interval of 8 hours. All mice were injected i.p. 110 mg/kg of acetaminophen 16 hours after the last administration of Compound 1. After fasting overnight, all mice were decapited. SGPT, SGOT and liver triglyceride levels were determined.

[4] = tested on: carbon tetrachloride-intoxicated mice; assay: Effect on SGPT and SGOT levels in carbon tetrachloride-intoxicated mice; conditions: for SGOT / SGPT: oral, ± SD; for SGOT: control 2087 ± 131; for SGPT: control 3110 ± 50
Excerpt: as §1
Effect on SGPT and SGOT levels in carbon tetrachloride-intoxicated mice (9 mice per group)
as §2

[5] = tested on: drug metabolism enzyme; assay: Effect on pentobarbital sleeping time in mice; conditions: for Sleeping time: 200 mg/kg oral, ± SD, control 49 ± 22
Experimental: (E) Effect on pentobarbital sleeping time in mice (10 mice per group)
Three groups of 10 mice were used in this experiment. […] The mice of control were given physiological saline. The interval between the lose and return of righting reflex of each mouse was recorded as sleeping time.

[6] = tested on: mortality induced by acetaminophen in mice; assay: Effect on mortality induced by acetaminophen in mice; conditions: 200 mg/kg
Excerpt: as §1
(C) Effect on mortality induced by acetaminophen in mice (14 mice per group)
Each group consisted of 14 mice. The procedure of the treatment was the same as mentioned in the item (B). All mice were given i.p. 400 mg/kg of acetaminophen 24 hours after the second dose of Compound 1. Survival numbers of mice were recorded within 5 days.

[7] = 200 mg/kg (DDB 200 mg/mg [sic])
[8] = 200 mg/kg (DDB 200 mg/mg [sic]), Compound 1 P < 0.001
[9] = 200 mg/kg (DDB 200 mg/mg [sic]), DDB P < 0.05, Compound 1 P < 0.001
[10] = 200 mg/kg, DDB P < 0.05, Compound 1 P < 0.001
[11] = 1 hr before pentobarbital 50 mg/kg i.p., P DDB <0.05, Compound 1 <0.001
[12] = 24 hrs before pentobarbital 50 mg/kg i.p., P DDB <0.01, Compound 1 <0.001

**Q.** With `COC(=O)c1cc(OC)c2c(c1-c1c(CO)cc(OC)c3c1OCO3)OCO2` [Compound 1, 6-methoxycarbonyl-6'-hydroxymethyl-2,3,2',3'-bis(methylenedioxy)-4,4'-dimethoxybiphenyl] as the molecule, how does the death ([1]; within 2 weeks) read?
**A.** no death occured

**Q.** And the “change of the behavior of the mice” value ([1]; within 48 hours)?
**A.** No noticeable change of the behavior of the mice

**Q.** And the “Liver triglyceride” value ([2]; 200 mg/kg)?
**A.** 115 ± 31 mg/kg

**Q.** And the SGOT ([2]; 200 mg/kg)?
**A.** 565 ± 130 u/dl

**Q.** And the SGPT ([2]; 200 mg/kg)?
**A.** 1430 ± 550 u/dl

**Q.** What about the “lowering SGPT and SGOT levels elevated by thioacetamide” value ([2]; 200 mg/kg, result in words) of the same molecule?
**A.** effective in lowering SGPT and SGOT levels

**Q.** And the “protective effect against hepatotoxicity induced by thioacetamide” value ([2]; result in words)?
**A.** protective effect against hepatotoxicity

**Q.** What about the Liver triglyceride ([3]; 100 mg/kg) of the same molecule?
**A.** 52.0 ± 13.8 mg/kg

**Q.** And the SGPT ([3]; 100 mg/kg, P < 0.05)?
**A.** 935 ± 660 u/dl

**Q.** What about the SGOT ([3]; 100 mg/kg, P < 0.05) of the same molecule?
**A.** 1000 ± 651 u/dl

**Q.** What about the Liver triglyceride [3, 7] of the same molecule?
**A.** 50.0 ± 27.6 mg/kg

**Q.** What about the SGPT [3, 8] of the same molecule?
**A.** 550 ± 495 u/dl

**Q.** What about the SGOT [3, 9] of the same molecule?
**A.** 565 ± 522 u/dl

**Q.** What about the “lowering SGPT and SGOT levels elevated by acetaminophen” value ([3]; 200 mg/kg, 100 mg/kg, result in words) of the same molecule?
**A.** effective in lowering SGPT and SGOT levels

**Q.** What about the “liver lesions such as inflammation and necrosis” value ([3]; result in words) of the same molecule?
**A.** ameliorated

**Q.** And the “liver triglyceride level elevated by acetaminophen” value ([3]; result in words)?
**A.** reduced

**Q.** And the “protective effect against hepatotoxicity induced by acetaminophen” value ([3]; result in words)?
**A.** protective effect against hepatotoxicity

**Q.** What about the SGOT ([4]; 50 mg/kg, 9 mice per group) of the same molecule?
**A.** 1826 ± 203 u/dl

**Q.** And the SGPT ([4]; 50 mg/kg, 9 mice per group)?
**A.** 2523 ± 273 u/dl

**Q.** What about the SGOT ([4]; 100 mg/kg) of the same molecule?
**A.** 1739 ± 192 u/dl

**Q.** What about the SGPT ([4]; 100 mg/kg, Compound 1 P < 0.01) of the same molecule?
**A.** 2126 ± 371 u/dl

**Q.** What about the SGPT level ([4]; 100 mg/kg, result in words) of the same molecule?
**A.** markedly decreased

**Q.** And the SGOT ([4]; 200 mg/kg, Compound 1 P < 0.01)?
**A.** 1362 ± 148 u/dl

**Q.** What about the SGPT [4, 10] of the same molecule?
**A.** 947 ± 236 u/dl

**Q.** What about the “SGOT level vs carbon tetrachloride control” value ([4]; 200 mg/kg, result in words) of the same molecule?
**A.** significantly lowered

**Q.** And the “SGPT level vs carbon tetrachloride control” value ([4]; 200 mg/kg, result in words)?
**A.** significantly lowered

**Q.** What about the “protection against carbon tetrachloride hepatotoxicity” value ([4]; result in words) of the same molecule?
**A.** protective effect against hepatotoxicity; also recorded: effective in protection against carbon tetrachloride hepatotoxicity

**Q.** What about the Sleeping time [5, 11] of the same molecule?
**A.** 214 ± 85 min

**Q.** What about the Sleeping time [5, 12] of the same molecule?
**A.** 20 ± 8 min

**Q.** And the pentobarbital sleeping time ([5]; 200 mg/kg, one hour before pentobarbital, result in words)?
**A.** significantly prolonged

**Q.** And the pentobarbital sleeping time ([5]; 24 hours prior to pentobarbital, result in words)?
**A.** markedly shortened

**Q.** And the “action on drug metabolism enzyme” value ([5]; indirectly indicated by sleeping time, result in words)?
**A.** inductive action on drug metabolism enzyme; also recorded: increases the activity of drug metabolism enzymes

**Q.** What about the Number of survival ([6]; 400 mg/kg acetaminophen i.p., of 14 mice, within 5 days, control 3) of the same molecule?
**A.** 11

**Q.** And the Mortality ([6]; 400 mg/kg acetaminophen i.p., within 5 days, control 78)?
**A.** 21%

**Q.** What about the “mortality of mice induced by acetaminophen” value ([6]; result in words) of the same molecule?
**A.** significantly decreased

**Q.** `COC(=O)c1cc(OC)c2c(c1-c1c(C(=O)OC)cc(OC)c3c1OCO3)OCO2` [DDB, dimethyl 4,4'-dimethoxy-5,6,5',6'-dimethylenedioxybiphenyl-2,2'-dicarboxylate, reference compound] was tested. Which “Liver triglyceride” value ([2]; 200 mg/kg) did it give?
**A.** 135 ± 46 mg/kg

**Q.** And the SGOT ([2]; 200 mg/kg)?
**A.** 1217 ± 261 u/dl

**Q.** What about the SGPT ([2]; 200 mg/kg) of the same molecule?
**A.** 2035 ± 770 u/dl

**Q.** What about the Liver triglyceride [3, 7] of the same molecule?
**A.** 56.2 ± 27.6 mg/kg

**Q.** And the SGPT [3, 8]?
**A.** 1100 ± 660 u/dl

**Q.** What about the SGOT [3, 9] of the same molecule?
**A.** 1130 ± 651 u/dl

**Q.** And the SGOT ([4]; 50 mg/kg, 9 mice per group)?
**A.** 1922 ± 174 u/dl

**Q.** What about the SGPT ([4]; 50 mg/kg, 9 mice per group) of the same molecule?
**A.** 2701 ± 243 u/dl

**Q.** What about the SGOT ([4]; 100 mg/kg) of the same molecule?
**A.** 2019 ± 130 u/dl

**Q.** And the SGPT ([4]; 100 mg/kg, Compound 1 P < 0.01)?
**A.** 2965 ± 221 u/dl

**Q.** What about the SGOT ([4]; 200 mg/kg, Compound 1 P < 0.01) of the same molecule?
**A.** 1700 ± 185 u/dl

**Q.** And the SGPT [4, 10]?
**A.** 2303 ± 318 u/dl

**Q.** And the Sleeping time [5, 11]?
**A.** 91 ± 57 min

**Q.** What about the Sleeping time [5, 12] of the same molecule?
**A.** 23 ± 10 min
